We go through 1 compound from publication PMC6412381, “Covalently Linking Oligomerization-Impaired GlpF Protomers Does Not Completely Re-establish Wild-Type Channel Activity” (International Journal of Molecular Sciences, 2019).

For experiment [1], the target named is T1, WT4 (genetically fused GlpF tetramer) (Escherichia coli, UniProt P0AER0).
T1 construct: four full-length GlpF copies fused in one polypeptide, N-terminal extension MGSGLE, Val-Glu linkers between monomers, calculated 120 kDa; expressed in E. coli SK46 lacking GlpF and AqpZ
T1 sequence (P0AER0 1-281): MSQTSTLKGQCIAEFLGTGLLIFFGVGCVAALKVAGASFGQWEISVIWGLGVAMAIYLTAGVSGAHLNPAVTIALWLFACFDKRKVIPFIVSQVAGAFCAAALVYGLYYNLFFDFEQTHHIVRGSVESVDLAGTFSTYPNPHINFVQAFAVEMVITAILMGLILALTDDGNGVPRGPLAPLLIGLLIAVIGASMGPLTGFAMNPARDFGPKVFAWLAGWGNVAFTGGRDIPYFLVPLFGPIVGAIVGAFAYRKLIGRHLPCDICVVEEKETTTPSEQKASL
Kind of experiment: stopped-flow light scattering of E. coli SK46 cells, re-swelling by ribitol influx. It counts as cell-based. The note with it: LB medium, mixed with equal volume of 600 mM ribitol, 25 °C, 500 µM IPTG induction; transport through channel.

Experiment [2] addresses T2, GlpF WT (non-fused) (Escherichia coli, UniProt P0AER0).
T2 construct: expressed from pMalp2-based plasmid in E. coli SK46 lacking GlpF and AqpZ
T2 sequence (P0AER0 1-281): T1 sequence (P0AER0 1-281)
The description is as above. It counts as cell-based. The note with it: LB medium, mixed with equal volume of 600 mM ribitol, 25 °C, 500 µM IPTG induction; transport through channel.

Consider `OC[C@@H](O)[C@@H](O)[C@@H](O)CO` [ribitol], for which the “k (flux rate constant)” value in experiment [1] was “yet the WT4 protein was still highly active”; in experiment [2], “the ribitol conductance of the fused GlpF tetramer was slightly decreased compared to the non-fused”.
